Data as given in US6914057B1, “Inhibitor of cataract formation” (The Research Foundation of State University of New York, priority 1998, dated 2005).

Assays:
[1] = system: Type II ZDF/GMI diabetic rats; experiment: Development of cataracts in Type II ZDF/GMI diabetic rats treated with tetracycline analogues; assay type: in vivo, rat; conditions: for percentage of Type II ZDF/GMI diabetic rats that developed cataracts: FIG. 1, treated diabetic rats, oral dose of 15 mg/kg
Text: Diabetics develop posterior subcapsular cataracts, characterized by a central opacity in the nucleus and cortex. […] In the current study, CMT-8 administration to the Type II diabetic rats reduced the incidence of cataract development by […] at five months. In fact, this therapeutic effect may have been underestimated since it was an unexpected finding and, therefore, was not documented at the earlier time points. The mechanisms by which Type II (and Type I) diabetes causes the development of these cataracts is not yet understood.
Specifically, approximately 60% of untreated Type II ZDF/GMI diabetic rats developed cataracts whereas approximately 42% of Type II ZDF/GMI diabetic rats treated with CMT-8 developed cataracts.
In particular, approximately 60% of Type II ZDF/GMI diabetic rats treated with doxycycline developed cataracts and approximately 70% of Type II ZDF/GMI diabetic rats treated with CMT-3 developed cataracts.
It is believed that the lack of efficacy for doxycycline and CMT-3 was due to the serum concentration achieved. […] The peak serum concentration for doxycycline was determined to be 0.9 μg/ml and the peak serum concentration for CMT-3 was determined to be 4.6 μg/ml. The peak serum concentration, though, for CMT-8 was determined to be 15 μg/ml. Liu et al., The Lipophilicity and Pharmacokdnetics of Different Chemically-Modified Tetracyclines (CMTs) In Vivo, Current Medicinal Chemistry, submitted for publication in September 1999. Clearly, administration of higher oral doses of CMT-3 and doxycycline would be needed to achieve serum concentrations similar to CMT-8.
FIGS. 2 and 3 provide a comparison of healthy untreated rats with untreated Type II ZDF/GMI diabetic rats and Type II ZDF/GMI diabetic rats treated with doxycycline and CMT-8.

[2] = rat; oral dose of 15 mg/kg; cited from earlier work

Compound	percentage of Type II ZDF/GMI diabetic rats that developed cataracts [1]	peak serum concentration [2] [µg/mL]	cataract development in photographs compared with non-diabetic control rats (in words) ([1]; FIGS. 2 and 3, treated Type II ZDF/GMI diabetic rats)	reduction of the incidence of cataract development ([1]; Type II diabetic rats, at five months) [%]	prevention of cataract development (in words) ([1]; ZDF/Gmi-fa Type II diabetic rats, at five months)
NC(=O)C1=C(O)C[C@@H]2C[C@@H]3Cc4cccc(O)c4C(=O)C3=C(O)[C@]2(O)C1=O [CMT-3, 6-demethyl-6-deoxy-4-dedimethylaminotetracycline]	approximately 70%	4.6	–	–	–
CC1c2cccc(O)c2C(O)=C2C(=O)C3(O)C(O)=C(C(N)=O)C(=O)CC3C(O)C21 (stereo not drawn) [CMT-8, 5-hydroxy-6-α-deoxy-4-dedimethylaminotetracycline]	approximately 42%	15	Cataracts do not appear to have developed	37	appeared to prevent the development of these cataracts
C[C@H]1c2cccc(O)c2C(=O)C2=C(O)[C@]3(O)C(=O)C(C(N)=O)=C(O)[C@@H](N(C)C)[C@@H]3[C@@H](O)[C@@H]21 [doxycycline, reference compound]	approximately 60%	0.9	–	–	–
